Reference: patent US6737383B1, “Herbicidal oxadiazolidines” (priority 1999, dated 2004)

Key:
goosegrass = assay: Test D goosegrass; format: in vivo, Eleusine indica; conditions: Postemergence, 0 to 100 scale
bermuda-grass = assay: Test D bermudagrass; format: in vivo, Cynodon dactylon; conditions: Postemergence, 0 to 100 scale
dallisgrass = assay: Test D dallisgrass; format: in vivo, Paspalum dilatatum; conditions: Postemergence, 0 to 100 scale
Green foxtail [1] = assay: Test D green foxtail; format: in vivo; conditions: Postemergence, 0 to 100 scale, 0 no injury, 100 complete control
tall mallow = assay: Test D tall mallow; format: in vivo, Malva sylvestris; conditions: Postemergence, 0 to 100 scale
Johnson grass = assay: Test D Johnson grass; format: in vivo, Sorghum halepense; conditions: Postemergence, 0 to 100 scale
itchgrass = assay: Test D itchgrass; format: in vivo, Rottboellia exaltata; conditions: Postemergence, 0 to 100 scale
Green foxtail [2] = assay: Test D green foxtail; format: in vivo; conditions: Rate 250 g/ha; Postemergence; 0 to 100 scale
Green foxtail [3] = assay: Test D green foxtail; format: in vivo; conditions: Postemergence, 0 to 100 scale, 0 no injury, 100 complete control; remark: listed apart in the source
common ragweed = assay: Test D common ragweed; format: in vivo, Ambrosia elatior; conditions: Postemergence, 0 to 100 scale
sandbur = assay: Test D sandbur; format: in vivo, Cenchrus echinatus; conditions: Postemergence, 0 to 100 scale
Spanishneedles = assay: Test D Spanishneedles; format: in vivo, Bidens bipinnata; conditions: Postemergence, 0 to 100 scale
Green foxtail [4] = assay: Test D green foxtail; format: in vivo; conditions: Postemergence, 0 to 100 scale, 0 no injury, 100 complete control; remark: listed apart in the source
[5] = Rate 16 g/ha, 0 no injury, 100 complete control
[6] = Rate 32 g/ha, 0 no injury, 100 complete control
[7] = Rate 64 g/ha, 0 no injury, 100 complete control
[8] = Rate 125 g/ha, 0 no injury, 100 complete control

In the case of `CCC(CC)n1c(=O)on(C(=O)N(c2ccc(F)cc2)C(C)C)c1=O` [Compound 358], the “Plant response rating, Goosegrass” value (goosegrass; [5]) is reported as 0, the “Plant response rating, Goosegrass” value (goosegrass; [6]) is reported as 20 and the “Plant response rating, Goosegrass” value (goosegrass; [7]) is reported as 100. The “Plant response rating, Goosegrass” value (goosegrass; [8]) was 100, the “Plant response rating, Goosegrass” value (goosegrass; Rate 250 g/ha) was 100 and the “Plant response rating, Bermudagrass” value (bermuda-grass; [5]) was 0. The “Plant response rating, Bermudagrass” value (bermuda-grass; [6]) was 90, the “Plant response rating, Bermudagrass” value (bermuda-grass; [7]) was 100 and the “Plant response rating, Bermudagrass” value (bermuda-grass; [8]) was 100. The “Plant response rating, Bermudagrass” value (bermuda-grass; Rate 250 g/ha) was 100, the “Plant response rating, Dallisgrass” value (dallisgrass; [5]) was 0 and the “Plant response rating, Dallisgrass” value (dallisgrass; [6]) was 30. For the same molecule, the “Plant response rating, Dallisgrass” value (dallisgrass; [7]) was 100, the “Plant response rating, Dallisgrass” value (dallisgrass; [8]) was 100 and the “Plant response rating, Dallisgrass” value (dallisgrass; Rate 250 g/ha) was 100. The “Plant response rating, Green foxtail” value (Green foxtail [1]; Rate 16 g/ha) was 0, the “Plant response rating, Green foxtail” value (Green foxtail [1]; Rate 32 g/ha) was 30 and the “Plant response rating, Tall Mallow” value (tall mallow; [5]) was 0. For the same molecule, the “Plant response rating, Tall Mallow” value (tall mallow; [6]) was 30, the “Tall Mallow plant response rating” value (tall mallow; [7]) was 50 and the “Tall Mallow plant response rating” value (tall mallow; [8]) was 70. The “Plant response rating, Tall Mallow” value (tall mallow; Rate 250 g/ha) was 80, the “Plant response rating, Johnsongrass” value (Johnson grass; [5]) was 0 and the “Plant response rating, Johnsongrass” value (Johnson grass; [6]) was 0. The “Plant response rating, Johnsongrass” value (Johnson grass; [7]) was 0, the “Plant response rating, Johnsongrass” value (Johnson grass; [8]) was 0 and the “Plant response rating, Johnsongrass” value (Johnson grass; Rate 250 g/ha) was 100. For the same molecule, the “Plant response rating, Itchgrass” value (itchgrass; [5]) was 0, the “Plant response rating, Itchgrass” value (itchgrass; [6]) was 0 and the “Plant response rating, Itchgrass” value (itchgrass; [7]) was 0. The “Plant response rating, Itchgrass” value (itchgrass; [8]) was 0, the “Plant response rating, Itchgrass” value (itchgrass; Rate 250 g/ha) was 100 and the “Plant response rating, Green foxtail” value (Green foxtail [2]) was 100. The “Plant response rating, Green foxtail” value (Green foxtail [3]; Rate 64 g/ha) was 100, the “Plant response rating, Green foxtail” value (Green foxtail [3]; Rate 125 g/ha) was 100 and the “Plant response rating, C. ragweed” value (common ragweed; [5]) was 0. The “Plant response rating, C. ragweed” value (common ragweed; [6]) was 0, the “Plant response rating, C. ragweed” value (common ragweed; [7]) was “—30” and the “Plant response rating, C. ragweed” value (common ragweed; [8]) was 70. For the same molecule, the “Plant response rating, C. ragweed” value (common ragweed; Rate 250 g/ha) was 70, the “Plant response rating, Sandbur” value (sandbur; [5]) was 0 and the “Plant response rating, Sandbur” value (sandbur; [6]) was 20. The “Sandbur plant response rating” value (sandbur; [7]) was 100, the “Sandbur plant response rating” value (sandbur; [8]) was 100 and the “Plant response rating, Sandbur” value (sandbur; Rate 250 g/ha) was 90. For the same molecule, the “Plant response rating, Spanishneedles” value (Spanishneedles; [5]) was 0, the “Plant response rating, Spanishneedles” value (Spanishneedles; [6]) was 0 and the “Spanishneedles plant response rating” value (Spanishneedles; [7]) was 0. The “Spanishneedles plant response rating” value (Spanishneedles; [8]) was 0, the “Plant response rating, Spanishneedles” value (Spanishneedles; Rate 250 g/ha) was 0 and the “Green foxtail plant response rating” value (Green foxtail [4]; Rate 64 g/ha) was 100. For the same molecule, the “Green foxtail plant response rating” value (Green foxtail [4]; Rate 125 g/ha) was 100.
